Reference: PMC11578313, “Miniaturized Modular Click Chemistry‐enabled Rapid Discovery of Unique SARS‐CoV‐2 M^pro Inhibitors With Robust Potency and Drug‐like Profile” (Advanced Science, 2024)
Like-named read-outs stand apart in the source and are kept apart here.

What was measured:
Wild‐type rgSARS‐CoV‐2 = test: microbe, parasite or virus in culture; type: cell-based, SARS‐CoV‐2
[1] = test system: rgSARS‐CoV‐2‐M^pro/T21I+E166V; type: cell-based, SARS‐CoV‐2; conditions: read-out: EC50 ± SD, rgSARS‐CoV‐2‐M^pro/T21I +E166V
[2] = test system: SARS‐CoV‐2 (hCoV‐19/Korea/KCDC06/2020, wild type); test: microbe, parasite or virus in culture; type: cell-based
[3] = test system: rgSARS‐CoV‐2‐M^pro/L50F+E166V; type: cell-based, SARS‐CoV‐2; conditions: read-out: EC50 ± SD, rgSARS‐CoV‐2‐M^pro/L50F+E166V
[4] = Severe acute respiratory syndrome coronavirus 2, Calu-3; read-out: EC50 ± SD, Wild‐type rgSARS‐CoV‐2

Compound | EC50 (Wild‐type rgSARS‐CoV‐2; [4]) | EC50 [1] | EC50 ([2]; Severe acute respiratory syndrome coronavirus 2, Calu-3, Gamma, Delta, and Omicron, read-out: EC50 against several SARS‐CoV‐2 variants) | EC50 ([2]; Severe acute respiratory syndrome coronavirus 2, wild‐type, gamma, delta, and omicron, Calu‐3, read-out: EC50 against the original strain and its circulating variants) | EC50 [3] | EC50 (Wild‐type rgSARS‐CoV‐2; Severe acute respiratory syndrome coronavirus 2, Calu-3, read-out: EC50 ± SD, Wild‐type rgSARS‐CoV‐2)
Cc1cncc(C(=O)N2C[C@H]3CC[C@@H](C2)N3[C@H](c2cccc(F)c2)c2cn(CCc3ccsc3)nn2)c1 [Compound C5N17B] | < 46 nM | 260 ± 29 nM | 130 to 260 nM | 119 to 260 nM | 150 ± 19 nM | 
CC(C)(C)[C@H](NC(=O)C(F)(F)F)C(=O)N1C[C@H]2[C@@H]([C@H]1C(=O)N[C@H](C#N)C[C@@H]1CCNC1=O)C2(C)C [Nirmatrelvir, reference compound] |  | > 100000 nM |  |  | > 100000 nM | 2770 ± 33 nM
Cc1cncc(C(=O)N2C[C@H]3CC[C@@H](C2)N3C(c2cccc(F)c2)c2cn(CCc3ccsc3)nn2)c1 (some centres unmarked) [Compound C5N17] | 441 ± 32 nM | 1470 ± 123 nM |  |  | 966 ± 40 nM | 
Cc1cncc(C(=O)N2C[C@H]3CC[C@@H](C2)N3C(c2cccc(F)c2)c2cccc(F)c2)c1 [AA‐625, reference compound] | 779 ± 173 nM | 3410 ± 821 nM |  |  | 5710 ± 664 nM | 
